# Tested on: bone marrow leukemic blasts obtained from children with ALL
# Test: Oligonucleotide microarray (Affymetrix HG-U95A) fold-change in gene expression, post-treatment vs diagnosis, in patients in vivo
# Set-up: species or system human
# Conditions: for number of genes that were down-regulated after single agent / number of genes that were up-regulated (increased) after single agent: changed by >50% in over 70% of patients; for number of genes that changed expression by at least 50%: in over 70% of patients treated
# Protocol: To elucidate genomic determinants of leukemia response to chemotherapy, oligonucleotide microarrays (Affymetrix® HG-U95A GeneChip) were used to analyze expression of approximately 9,600 human genes in bone marrow leukemic blasts obtained from children with ALL, at diagnosis and one day post-treatment with mercaptopurine (1 gm/^2 IV) or methotrexate (MTX) given alone (1 gm/m^2 IV), or mercaptopurine (6-MP) in combination with either low-dose MTX [180 mg/m^2 orally] or high-dose MTX [[…]]). A stratified (immunophenotype, DNA ploidy) randomization was used to assign treatment, and the fold-change in gene expression (post-treatment to diagnosis) was computed for 60 patients. Using linear discriminate analysis with variance (LDAV) genes that most discriminated among treatments were selected based on expression changes (fold-change from diagnosis to post-treatment) or based on post-treatment expression levels alone. […] Leave-one-out cross-validation using support-vector-machine (SVM), based on the 120 most discriminating genes, correctly classified 60 out of 60 patients (100%) based on fold-change versus 58 out of 60 (96.7%) using only post-treatment expression profiles. The smallest number of genes for discrimination among treatments was 120 using fold-change, which included genes involved in cellular processes such as apoptosis, cell cycle control and stress response. Together, these in vivo data reveal unique, treatment-specific changes in gene expression in primary leukemia cells, establishing that changes in expression differ according to the specific medication, dosage and combination given. These findings provide new insights to cancer cell responses to chemotherapy and can be used to illuminate mechanisms of leukemia resistance and identify novel targets to augment existing treatment modalities.
# Primary leukemia cells. This study included 60 patients with ALL enrolled on St. Jude Children's Research Hospital Total Therapy Studies XIIIB and XV. Bone marrow samples were obtained at diagnosis (pre-treatment) and one day post-treatment with mercaptopurine (6-MP) or methotrexate (MTX) given alone, or mercaptopurine in combination with either low-dose MTX (LDMTX/6-MP) or high-dose MTX (HDMTX/6-MP). A stratified (immunophenotype, DNA ploidy) randomization was used to assign treatment. Total RNA was extracted from cryopreserved mononuclear cell suspensions with TriReagent (MRC, Cincinnati, Ohio).
# Mircoarray analysis. High quality RNA was hybridized to Affymetrix HG-U95A GeneChipe (12,600 probe sets, ˜9,600 human genes) according to the manufacturers protocol (Affymetrix, Santa Clara, Calif.). Scaled gene expression values for pre-treatment, post-treatment and fold-change (post-treatment vs. pre-treatment ratio) were calculated using Affymetrix Microarray Suite® (MAS) 5.0.
# Gene expression data analysis. Analysis was done on fold-change and on post-treatment expression. The data were log-transformed and probe sets were filtered out if “absent” in all 120 arrays or if “no change” in all 60 fold-change ratios. Principal component analysis (PCA) and 2D-hierarchical clustering was performed using GeneMath 1.5 (AppliedMaths, Belgium). We applied supervised methods to find the most discriminating genes, including Linear Discriminant Analysis with Variance (LDAV) (GeneMaths) and ANOVA. Probe sets were ranked according to their discriminating power. To establish that these genes could classify treatments and to find significant genes, leave-one-out cross-validation was performed by support vector machine (SVM) with the top ranked probe sets. […] The p-value is defined as the probability of observing a misclassification rate less or equal to that in the experimental data. 250 permutations were performed. To distinguish one treatment from the other treatments, distinction calculation (Spotfire 6.3, Somerville, Mass.) was performed for each probe set. Permutations (n=1000) were performed to obtain the p-values. […]
Structure (SMILES),"difference in gene expression between infusion for 24 h and infusion for 4 h (HDMTX 24 h vs 4 h infusion, data pooled)",number of genes that were down-regulated after single agent [genes],number of genes that were up-regulated (increased) after single agent [genes],number of genes that changed expression by at least 50% [genes]
"CN(Cc1cnc2nc(N)nc(N)c2n1)c1ccc(C(=O)N[C@@H](CCC(=O)O)C(=O)O)cc1 [HDMTX, Methotrexate]",No difference,59,38,97
"S=c1nc[nH]c2nc[nH]c12 [MP, Mercaptopurine]",–,40,158,197

# From US20030224422A1, “Pre-and post therapy gene expression profiling to identify drug targets” (St. Jude Children's Research Hospital, Inc., priority 2002, published 2003)
